Key:
[1] = molecular target: T1, COX1 (Ovis aries, UniProt P05979); assay: COX inhibitor screening kit (Cayman Chemical), COX1; format: biochemical; conditions: 100 μM compound
T1 construct: purchased Cayman Chemical, Ann Arbor, Mich; 560131
T1 sequence (P05979 25-600): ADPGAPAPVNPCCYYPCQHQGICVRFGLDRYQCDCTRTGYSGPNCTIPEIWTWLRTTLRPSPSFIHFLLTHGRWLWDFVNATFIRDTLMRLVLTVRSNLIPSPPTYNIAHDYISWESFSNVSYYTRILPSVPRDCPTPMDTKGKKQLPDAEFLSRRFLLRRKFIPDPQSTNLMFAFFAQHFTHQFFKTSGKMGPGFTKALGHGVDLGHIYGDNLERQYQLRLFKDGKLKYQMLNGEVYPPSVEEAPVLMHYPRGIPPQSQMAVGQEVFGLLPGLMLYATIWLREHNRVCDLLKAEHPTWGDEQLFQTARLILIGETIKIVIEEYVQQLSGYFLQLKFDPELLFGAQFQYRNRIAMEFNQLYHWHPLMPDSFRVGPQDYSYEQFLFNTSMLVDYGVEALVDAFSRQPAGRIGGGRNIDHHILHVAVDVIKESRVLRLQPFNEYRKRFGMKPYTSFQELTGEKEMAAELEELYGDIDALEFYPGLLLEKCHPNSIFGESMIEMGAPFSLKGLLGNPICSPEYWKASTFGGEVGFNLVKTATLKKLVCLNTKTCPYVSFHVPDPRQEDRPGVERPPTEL
Description: (§1) The invention is based on the fact that the inventors have discovered that compounds of the formulae above lower Aβ42 Levels in in vitro APP processing assays. Furthermore, the compounds, in general, have negligible levels of COX inhibition and therefore are thought to essentially be devoid of the deleterious side-effects associated with COX inhibition. […] Preferred compounds of the formulae for use in the invention are those that have little or negligible COX1 and/or COX2 inhibition at 1 μM, more preferred are those that little or negligible COX1 and/or COX2 inhibition at 10 μM, and more preferred are those that little or negligible COX1 and/or COX2 inhibition at 100 μM compound. COX1 and COX2 inhibition can be determined with a COX inhibitor screening kit from e.g., Cayman Chemical, Ann Arbor, Mich. (Cat. #560131).
(§2) The invention is related to the inventors' discovery that compounds of Formula I-Va lower Aβ42 levels in APP processing assays. Furthermore, compounds of Formula I-Va, in general, have negligible levels of COX inhibition and therefore are thought to essentially be devoid of the deleterious side-effects associated with COX inhibition. […] Preferred compounds of Formula I-Va for use in the invention are those that have little or negligible COX1 and/or COX2 inhibition at 1 μM, more preferred are those that have little or negligible COX1 and/or COX2 inhibition at 10 μM, and more preferred are those that have little or negligible COX1 and/or COX2 inhibition at 100 μM compound. COX1 and COX2 inhibition can be determined with a COX inhibitor screening kit from e.g., Cayman Chemical, Ann Arbor, Mich. (Cat. #560131). […] Representative compounds found to lower Aβ42 levels using the previously described assay by at least 50% of DMSO control at concentrations ranging from 30-80 μM include compounds 1, 11, 21, 22, 24, 25, 26, 38, 43, 64, 67, 98, 100, and 102. Particularly preferred compounds of Formula I-Va for use in the methods and embodiments of the invention include those in Tables 2-7 below.

[2] = molecular target: T2, COX2 (Homo sapiens, UniProt P35354); assay: COX inhibitor screening kit (Cayman Chemical), COX2; format: biochemical; conditions: 100 μM compound
T2 construct: purchased Cayman Chemical, Ann Arbor, Mich; 560131
T2 sequence (P35354 18-604): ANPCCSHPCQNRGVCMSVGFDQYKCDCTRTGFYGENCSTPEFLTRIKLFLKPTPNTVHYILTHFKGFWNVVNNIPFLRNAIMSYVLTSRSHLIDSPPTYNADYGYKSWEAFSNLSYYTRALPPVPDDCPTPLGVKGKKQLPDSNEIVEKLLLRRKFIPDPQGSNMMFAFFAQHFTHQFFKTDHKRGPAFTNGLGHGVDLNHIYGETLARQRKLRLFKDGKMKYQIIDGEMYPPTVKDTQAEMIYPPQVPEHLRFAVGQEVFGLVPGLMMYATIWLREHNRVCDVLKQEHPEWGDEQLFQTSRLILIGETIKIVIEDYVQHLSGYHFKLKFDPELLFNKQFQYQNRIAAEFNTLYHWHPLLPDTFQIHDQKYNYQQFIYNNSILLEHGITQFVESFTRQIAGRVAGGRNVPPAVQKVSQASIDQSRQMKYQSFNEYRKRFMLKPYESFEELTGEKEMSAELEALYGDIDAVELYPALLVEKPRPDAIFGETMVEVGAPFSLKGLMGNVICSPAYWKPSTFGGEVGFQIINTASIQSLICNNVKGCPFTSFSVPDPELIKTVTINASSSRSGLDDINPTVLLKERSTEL
Description: as §1, §2

[3] = clinical trials; rofecoxib at 25 mg daily; cited from earlier work
[4] = patients with mild cognitive impairment; 4.5% for placebo; cited from earlier work

Structure (SMILES)	inhibition of COX1 [1]	inhibition of COX2 [2]	efficacy for treating AD [3]	patients who developed AD [4]
Cc1c(CC(=O)O)c2ccccc2n1C(=O)c1ccc(OC(F)(F)F)cc1 [Compound 10, 1-(4-trifluoromethoxybenzoyl)-2-methylindole-3-acetic acid]	not significantly inhibit	not significantly inhibit	–	–
Cc1c(CC(=O)O)c2ccccc2n1Cc1ccc(Br)cc1 [Compound 19, 1-(4-bromobenzyl)-2-methylindole-3-acetic acid]	not significantly inhibit	not significantly inhibit	–	–
O=C(O)c1cc([N+](=O)[O-])ccc1NCc1ccc(Cl)c(Cl)c1 [Compound 40, 2-(3,4-dichlorobenzylamino)-5-nitrobenzoic acid]	not significantly inhibit	not significantly inhibit	–	–
O=C(O)c1cc([N+](=O)[O-])ccc1NCc1cccc(Cl)c1 [Compound 43, 2-(3-chlorobenzylamino)-5-nitrobenzoic acid]	not significantly inhibit	not significantly inhibit	–	–
COc1ccc(-c2cccc(CC(=O)O)c2)cc1 [Compound 72, (4′-Methoxy-biphenyl-3-yl)-acetic acid]	not significantly inhibit	not significantly inhibit	–	–
O=C(O)c1cc2cc(OCc3ccccc3)ccc2n1Cc1ccc(C(F)(F)F)cc1 [Compound 97, 5-benzyloxy-1-(4-trifluoromethylbenzyl)-1H-indole-2-carboxylic acid]	not significantly inhibit	not significantly inhibit	–	–
COc1ccc2cc([C@H](C)C(=O)O)ccc2c1 [Naproxen]	–	–	failed to show efficacy	–
CS(=O)(=O)c1ccc(C2=C(c3ccccc3)C(=O)OC2)cc1 [rofecoxib]	–	–	failed to show efficacy	6.4%
